Measurements as given in the NIST ThermoML archive (doi:10.1021/je7006956).
± gives the expanded uncertainty stated by the source.

Key:
[1] = for mass density: 101.33 kPa, Pycnometric method; for mass density / viscosity: Liquid
[2] = cn = amount concentration of the nth substance listed, in mol/dm3; details: 101 kPa, Liquid, Pycnometric method

O=C(c1ccccc1)N(O)c1ccccc1 [N-phenylbenzohydroxamic acid]
Details	Normal melting temperature [°C]
[1], Crystal, visual observation	121.00 ± 1

O=C(c1ccccc1)N(O)c1ccccc1 [N-phenylbenzohydroxamic acid] + C[S+](C)[O-]
mass density [kg/m3], [2]
Details	c1 = 0.0469	c1 = 0.0938	c1 = 0.1408	c1 = 0.1877	c1 = 0.2347	c1 = 0.2816	c1 = 0.3286	c1 = 0.3755	c1 = 0.4225	c1 = 0.4694
298.15 K	1097.23 ± 2.5	1098.39 ± 2.5	1098.59 ± 2.5	1099.36 ± 2.4	1100.14 ± 2.4	1100.75 ± 2.4	1101.46 ± 2.4	1102.02 ± 2.3	1102.75 ± 2.3	1102.8 ± 2.3
303.15 K	1093.69 ± 2.5	1094.33 ± 2.5	1094.95 ± 2.5	1096.03 ± 2.5	1097.27 ± 2.4	1098.29 ± 2.4	1098.91 ± 2.4	1099.88 ± 2.3	1100.55 ± 2.3	1100.96 ± 2.3
308.15 K	1089.07 ± 2.5	1090.08 ± 2.5	1091.61 ± 2.5	1091.83 ± 2.5	1093.14 ± 2.5	1094.08 ± 2.4	1095.64 ± 2.4	1096.52 ± 2.4	1097.67 ± 2.3	1098.81 ± 2.3
313.15 K	1084.72 ± 2.6	1086.26 ± 2.5	1086.93 ± 2.5	1087.56 ± 2.5	1088.34 ± 2.5	1089.59 ± 2.4	1090.74 ± 2.4	1091.97 ± 2.4	1093.11 ± 2.4	1094.24 ± 2.4
318.15 K	1078.8 ± 2.6	1080.58 ± 2.6	1081.55 ± 2.5	1082.82 ± 2.5	1083.33 ± 2.5	1084.33 ± 2.4	1085.8 ± 2.4	1086.86 ± 2.4	1087.92 ± 2.4	1089.02 ± 2.4

C[S+](C)[O-] [dimethyl sulfoxide]
[1]
Details	mass density [kg/m3]	viscosity [mPa·s]
298.15 K	1094.75 ± 2.6	1.993 ± 0.096
303.15 K	1090.76 ± 2.6	1.801 ± 0.088
308.15 K	1086.06 ± 2.6	1.652 ± 0.081
313.15 K	1080.45 ± 2.6	1.516 ± 0.075
318.15 K	1075.26 ± 2.6	1.398 ± 0.07
